Measurements as given in article PMC5428521, “Identification of a Novel, Small Molecule Partial Agonist for the Cyclic AMP Sensor, EPAC1” (Scientific Reports, 2017).
Like-named read-outs stand apart in the source and are kept apart here.

Legend:
Format in all cases: binding
GST = GST (Schistosoma japonicum, UniProt P08515); experiment: Ligand observed NMR (1D and waterLOGSY) with GST alone; conditions: compound 50 µM, GST 2.5 µM
Text: (§1) Given that I942 seems to exert selective agonist properties against EPAC1, but not EPAC2, we next sought to validate whether our isolated ligands can interact with EPAC1 and EPAC2. Ligand observed nuclear magnetic resonance (NMR) is a valuable tool for the identification and validation of small molecule ligands. We therefore used one dimensional proton (1D) and water-ligand observed by gradient spectroscopy (waterLOGSY) NMR to confirm the ability of I942 and I178 to bind to the purified CNBs of EPAC1 and EPAC2, in comparison with the commercially available EPAC1 antagonist, ESI-09[32]. In order to assess ligand/CNB interaction, 1D and waterLOGSY experiments were performed on each compound (50 µM) in the presence or absence of 2.5 µM EPAC-CNB. In the absence of protein, each test compound produced a well-resolved 1D spectrum and a region of each spectrum was chosen to display distinctive spectral peaks originating from the ligand (Fig. 6). In the absence of protein, the corresponding waterLOGSY peaks were small, or absent, due to the negligible signal produced by saturation transfer from water to the freely tumbling small molecule. […] In waterLOGSY spectra, protein-mediated saturation transfer can only occur if the protein-ligand complex has a substantial lifetime. […]
(§2) (A) One dimensional proton (1D) and waterLOGSY (WL) spectra were performed on samples containing hit compound I942 (50 µM) in the absence and presence of EPAC1-CNB, EPAC2-CNB or GST alone, as indicated (2.5 µM). […] Interaction between compound and protein was assessed through comparison of the compound alone and protein-compound sample spectra. […]
(§3) All NMR spectra were recorded on a Bruker AVANCE IIIHD 600 spectrometer equipped with a TCI cryoprobe at 285 K. Test compounds were prepared in deuterated DMSO and diluted to given experimental concentrations in NMR buffer (20 mM Na2PO4, pH 7.0, 50 mM NaCl, 0.1% (w/v) NaN3, 5% (v/v) D2O) with a final DMSO concentration below 0.1%. […] One dimensional proton (1D) and waterLOGSY spectra were recorded for all compounds tested, using pulse sequences as previously described. […]

EPAC2-CNB = target: T1, EPAC2-CNB (Mus musculus, UniProt Q9EQZ6); experiment: Ligand observed NMR (1D and waterLOGSY) with EPAC2-CNB; conditions: compound 50 µM, protein 2.5 µM
T1 construct: EPAC2-CNB (amino acids 304–453 of EPAC2); made in house; host or cells: BL-21 Escherichia coli (pGEX-6P-1)
T1 sequence (Q9EQZ6 304-453 isoform Q9EQZ6-3): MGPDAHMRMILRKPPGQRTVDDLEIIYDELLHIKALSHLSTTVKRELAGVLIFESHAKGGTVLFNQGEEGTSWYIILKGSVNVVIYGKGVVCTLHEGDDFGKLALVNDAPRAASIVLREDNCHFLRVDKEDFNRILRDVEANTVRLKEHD
Text: as §1, §2, §3

EPAC1-CNB = target: T2, EPAC1-CNB (Homo sapiens, UniProt O95398); experiment: 8-NBD-cAMP competition assay with EPAC1-CNB; conditions: for IC50: 7-point dose response, 75 µM top concentration, 0.75% DMSO
T2 construct: EPAC1-CNB (amino acids 169–318 of EPAC1); made in house; host or cells: BL-21 Escherichia coli (pGEX-6P-1)
T2 sequence (O95398 169-318 isoform O95398-3): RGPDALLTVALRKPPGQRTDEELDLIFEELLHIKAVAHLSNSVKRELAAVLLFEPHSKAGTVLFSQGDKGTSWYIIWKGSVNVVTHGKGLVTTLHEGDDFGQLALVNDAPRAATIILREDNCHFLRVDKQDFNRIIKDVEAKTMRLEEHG
Method: Optimisation of assay conditions was performed in 96 well black assay plates (Greiner). Comparison of reference molecules, dose response curves and pilot screen were done in black, low volume 384 assay plates (Greiner). Liquids were dispensed using a Biomek Fx laboratory automation workstation with a 96-multichannel pipetting head (Beckman Coulter) for optimisation, whereas the Echo® Liquid Handler (Labcyte) and Wellmate automated dispenser (Thermo Matrix) were employed for pilot screens (see library screening).
This was done using the optimised assay conditions developed during the study. Library compounds were transferred from pre-prepared, 1000x stock Echo® 384 LDV source plates (Labcyte) into black, low volume 384 assay plates (Greiner) at 25 nl volumes, using an Echo® Liquid Handler (Labcyte), maintaining 0.1–1% DMSO throughout. EPAC1-CNB (0.8 µM) was immediately added using a Wellmate automated dispenser (Thermo Matrix). Plates were centrifuged at 800 rpm, 10 s, and then incubated for 30 minutes, RT, to promote compound-protein complex formation. […] The assay was incubated at room temperature and the fluorescence intensity at 480/535 nm (ex/em) was measured after 4–15 hours using the Envision plate reader.

Chain of GST (P08515 whole entry): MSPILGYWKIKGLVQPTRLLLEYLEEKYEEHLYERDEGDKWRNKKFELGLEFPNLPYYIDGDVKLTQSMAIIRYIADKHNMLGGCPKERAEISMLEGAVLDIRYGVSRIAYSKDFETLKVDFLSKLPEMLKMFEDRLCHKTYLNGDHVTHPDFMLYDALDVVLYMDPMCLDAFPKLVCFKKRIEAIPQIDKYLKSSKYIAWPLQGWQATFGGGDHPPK

Cc1ccc(S(=O)(=O)NC(=O)COc2ccc3ccccc3c2)c(C)c1 [I942, N-(2,4-dimethylbenzenesulfonyl)-2-(naphthalen-2-yloxy)acetamide] was tested, and the “NMR interaction with GST alone” value (GST) was “No peak broadening”, the NMR interaction (EPAC2-CNB) was “Strong, Specific Interaction” and the Kd (EPAC1-CNB) was roughly 40 µM. For the same compound, the IC50 (EPAC1-CNB; IC50, 8-NBD-cAMP binding assay) was roughly 35 µM and the “affinity, fold lower than that of cAMP” value (EPAC1-CNB; competition assay, isolated CNB domain) was “about 10 fold”.

In the case of O=C(COc1ccc2ccccc2c1)NS(=O)(=O)c1ccccc1 [I178, N-(benzenesulfonyl)-2-(naphthalen-2-yloxy)acetamide], the “NMR interaction with GST alone” value (GST) is reported as “No peak broadening”, the NMR interaction (EPAC2-CNB) is reported as “Weak, specific interaction” and the IC50 (EPAC1-CNB; read-out: IC50, 8-NBD-cAMP binding assay) is reported as roughly 40 µM.
